In article PMC11790956, “A microscale thermophoresis-based enzymatic RNA methyltransferase assay enables the discovery of DNMT2 inhibitors” (Communications Chemistry, 2025):

Columns and labels:
[1] = biological target: T1, S. aureus TrmD (Staphylococcus aureus, UniProt Q2FZ43); assay: S. aureus TrmD enzymatic split aptamer MST assay; type: biochemical; conditions: 500 µM of hit compound, Fig. 5D
T1 construct: made in house
T1 sequence (Q2FZ43 1-245): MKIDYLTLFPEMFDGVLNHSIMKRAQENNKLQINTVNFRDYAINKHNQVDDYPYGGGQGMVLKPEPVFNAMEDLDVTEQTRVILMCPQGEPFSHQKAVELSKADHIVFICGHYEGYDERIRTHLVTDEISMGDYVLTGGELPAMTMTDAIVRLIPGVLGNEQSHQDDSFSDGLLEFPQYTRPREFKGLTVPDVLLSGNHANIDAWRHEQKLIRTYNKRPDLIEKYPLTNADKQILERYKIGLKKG
Description: DNMT2 & S. aureus TrmD: 100 mM Tris-HCl, pH 8, 100 mM NH4OAc, 0.1 mM EDTA, 10 mM MgCl2, 10 mM DTT. For TrmD: 50 nM TrmD, 2 µM SAM, 1 µM tRNA^Leu.
For MTase assay detection by MST, enzyme reaction mixtures with a total volume of 10 µL per single treatment condition were prepared and incubated for the desired reaction times. Inhibitors were added from corresponding DMSO stocks to a final DMSO concentration of max. 5%. Afterward, reactions were quenched at a given reaction time by the addition of 1 µL sodium dodecyl sulfate (SDS, solution, 3% in water) per 10 µL reaction mixture and mixed well by pipetting. Subsequently, 1 µL of a 10× aptamer-containing detection master mix (200 mM Tris, pH 8.5, 200 mM MgCl2, 3 M NaCl, 10 mM urea, 0.2% Brij, 500 nM aptaSAH1, 500 nM aptaSAH2) was added to the quenched MTase reaction and incubated for 1 h at room temperature. […]
MST experiments were carried out in at least technical triplicates using a Monolith NT.115 instrument (NanoTemper Technologies) using Monolith standard capillaries and the blue excitation laser setup. […] General settings were applied for all MST experiments as follows: manual temperature control: 25 °C, fluorescence measurement before MST: 4 s, MST (IR laser) on: 20 s, fluorescence after MST: 2 s, delay: 25 s. The laser power was adjusted to optimize the signal-to-noise ratio and the fluorescence signal. […]

[2] = biological target: T2, DNMT2-tRNA complex (Homo sapiens, UniProt O14717); assay: Electrophoretic mobility shift assay (EMSA) of the DNMT2-tRNA complex; type: binding; conditions: 500 µM compound, DNMT2 10 µM, tRNAAsp 5 µM
T2 construct: made in house
T2 sequence (O14717 1-391): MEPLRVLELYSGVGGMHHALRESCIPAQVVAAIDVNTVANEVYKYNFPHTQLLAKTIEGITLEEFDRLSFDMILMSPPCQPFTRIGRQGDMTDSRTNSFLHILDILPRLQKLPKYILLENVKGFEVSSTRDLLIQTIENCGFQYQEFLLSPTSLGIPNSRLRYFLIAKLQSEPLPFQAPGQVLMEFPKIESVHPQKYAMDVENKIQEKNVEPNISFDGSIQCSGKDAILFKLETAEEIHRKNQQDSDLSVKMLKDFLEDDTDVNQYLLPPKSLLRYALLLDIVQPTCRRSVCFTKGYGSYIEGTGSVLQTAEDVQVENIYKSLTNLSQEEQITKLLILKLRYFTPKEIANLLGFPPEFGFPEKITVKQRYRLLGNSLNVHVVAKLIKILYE
Description: We speculated these hits might bind very weakly to the tRNA-DNMT2 interaction site and by this inhibit DNMT2 activity. To test this hypothesis, we performed an electrophoretic mobility shift assay (EMSA) using tRNA^Asp (5 µM) and DNMT2 (10 µM) compared to the tRNA sample in absence of the DNMT2 protein (SI Fig. 4)[33]. […] Subsequently, we treated the DNMT2-tRNA complex with all hit compounds at 500 µM and observed their potential to disrupt the complex.
DNMT2 (10 µM) was mixed with tRNA^Asp (5 µM) and treated with 500 µM of the respective screening hit compound in DNMT2 assay buffer (100 mM Tris-HCl, pH 8, 100 mM NH4OAc, 0.1 mM EDTA, 10 mM MgCl2, 10 mM DTT). Subsequently, reaction samples (each 5 µL) were loaded to a native 10% polyacrylamide gel and separated electrophoretically (1 h, 180 V) in 1x TBE. RNA was stained in situ with 1x GelRed and PAGE analysis was conducted by fluorescence scanning at an excitation wavelength of 532 nm (Amersham Typhoon 9400). Positive control: DNMT2+tRNA (band at high molecular weights); negative control: only tRNA (band at low molecular weights).
SI Figure 4. Electrophore?c mobility shi? assay (EMSA) to inves?gate the inﬂuence of screening hits on the DNMT2-tRNA complex forma?on. D NMT2 (10 µ M ) was mixe d w it h t RNAAsp (5 µM) and treated with 50 0 µM of the respec?ve screening hit compound in DNMT2 assay buﬀer. All reac?on samples (each 5 µL) were loaded to a na?ve 10% polyacr ylamide gel and separated electrophore?cally (1 h, 1 80 V) in 1x TBE. RNA was stained in situ with 1x GelRed and PAGE analysis was conducted by ﬂuorescence scanning at an excita?on wavelength of 532 nm (Amersham Typhoon 9400). Po s i ? ve control: DNMT2+tRNA (band at high molecular weights); nega?ve control: only tRNA (band at low

inhibition of TrmD (selectivity panel) [1]: did not inhibit
influence on DNMT2-tRNA complex formation [2]: do not inﬂuence the complex
Compound: C=CC(=O)NC(=O)NC12CC3CC(CC(C3)C1)C2 [Cpd 11, 1-(adamantan-1-yl)-3-(prop-2-enoyl)urea]
